Measurements taken from paper PMC9860708, “Parent-Metabolite Pharmacokinetic Modeling of Formononetin and Its Active Metabolites in Rats after Oral Administration of Formononetin Formulations” (Pharmaceutics, 2022).
Read-outs that look alike come from different tables or passages of the source.

Assays:
[1] = Plasma protein binding assay (ultrafiltration, Centrifree); format: in vitro ADME; conditions: male SD rat plasma, n = 3
Method: The plasma protein binding of FMN, DZN, DHD and EQL was estimated using Ultra-filtration method using Centrifree® micro-partition system (Amicon Inc., Lexington, MA, USA). The experiment was conducted at concentrations of 50, 150, 500 and 1000 ng/mL (n = 3) for all four compounds in male SD rat plasma. The spiked plasma samples were allowed to equilibrate for at least 15 min before it was put into Centrifree® ultrafiltration tubes. The tubes were centrifuged at 1000× g for 15 min at 37 °C. Then, compound concentrations in the ultrafiltrate buffer (CUF) and plasma in the sample reservoir (Ctotal) were quantitated by the anlytical method described in Section 2.3. The plasma protein binding rate was calculated using the following formula: Plasma protein binding (%)=[…]

[2] = Pharmacokinetic evaluation after oral administration of FMN solution and formulations (non-compartmental analysis); conditions: 20 mg/kg FMN, all three groups
Method: The animals were maintained in the temperature and humidity range of 25 ± 1 °C and 50 ± 5% RH, respectively, over the acclimation period. To minimize the effects of food on pharmacokinetic profile of isoflavones, the animals were fasted overnight with free access to water.
Animals were allocated equally into 3 groups (5 rats per group). […] The blood samples were immediately centrifuged (10,000× g, 10 min, 4 °C) to obtain plasma samples and was stored at −80 °C.
Determination of the four isoflavones and DZN-d4 (internal standard, IS) in samples were conducted using Acquity UPLC system (Waters Corp., Milford, MA, USA) coupled to Xevo TQ-S triple quadrupole mass spectrometry (Waters Corp., USA) with electrospray (ESI) source. The chromatographic separations of the four isoflavones was performed in a Kinetex C18 column (2.1 × 100 mm, 1.7 μm particle size, Phenomenex, Torrance, CA, USA) at 40 ± 0.5 °C. The mobile phase consisted of water (mobile phase A) and acetonitrile (mobile phase B) with gradient elution at a flow rate of 0.2 mL/min. […] The optimized collision energy of FMN, DZN, DHD, EQL and IS were −22, −38, −22, −15 and −38, respectively. Data acquisition and analysis were achieved using Masslynx 4.1 software (Waters Corp., USA).
The samples were extracted by protein precipitation using methanol. 50 μL of rat samples were added with 10 μL of the IS solution (10 μg/mL of DZN-d4 in 50% methanol) to correct the loss of analytes during sample preparation. 100 μL of methanol was added to the mixed sample, vortexed for 1 min and centrifuged at 15,000× g for 5 min. Then, 5 μL of aliquots were injected into the UPLC-MS/MS system. The method validation was performed according to the FDA guideline for industry bioanalytical method validation.
PK parameters such as the maximum plasma concentration (Cmax) and the time to reach Cmax (Tmax) were determined from plasma concentration-time curve. The linear trapezoidal rule was used to calculate area under the curve to the final measured concentration (AUC0-t), then area from Clast to area expolated to infinity was added to AUC0-t to integrate AUC0-∞. […] The PK analysis was performed using WinNonlin® software (version 8.2, Certara™ Company, Princeton, NJ, USA). Then, a PK model was developed for FMN and its metabolites following oral administration of solution or formulations. The model was implemented in the WinNonlin model with NLME engine and estimated using the naïve-pooled and First Order Conditional Estimation-Extended Least Squares (FOCE-ELS) algorithms. […]

human serum albumin = conditions: concentration levels of 3–15 μM DZN, ref Song et al. 23; cited from earlier work
[3] = parameters: method as in PMID 21266188; conditions: female rat plasma, cited from earlier work
[4] = cited from earlier work
[5] = parameters: method as in PMID 12714433; conditions: humans; cited from earlier work
[6] = oral 20 mg/kg FMN dissolved in 0.5% CMC-Na, male Sprague Dawley rats

SMILES | fraction unbound at 15 min, 50 ng/mL [1] | fraction unbound at 15 min, 150 ng/mL [1] | fraction unbound at 15 min, 500 ng/mL [1] | fraction unbound at 15 min, 1000 ng/mL [1] | Detection of analyte in rat plasma after oral administration of FMN [2] | unbound DZN (human serum albumin) [µM] | Plasma protein binding ([3]; 50 ng/mL) [%] | Plasma protein binding ([3]; 150 ng/mL) [%] | Time at which the peak plasma concentration was reached ([4]; 2–50 mg/kg FMN orally administered, rats) [h] | oral bioavailability (F) ([4]; FMN solution dissolved in 0.5% CMC-Na, rats) [%] | clearance of FMN ([4]; intravenous administration, rats) [mL/min/kg] | AUCinf [4, 6] [µM·h] | Cmax [4, 6] [nM] | FMN excreted intact [5]
O=C1c2ccc(O)cc2OCC1c1ccc(O)cc1 (stereo not shown) [DHD, Dihydrodaidzein] | 0.118 | 0.126 | 0.12 | 0.132 | not quantitated |  |  |  |  |  |  |  |  | 
O=c1c(-c2ccc(O)cc2)coc2cc(O)ccc12 [DZN, Daidzein] | 0.0456 | 0.0342 | 0.0569 | 0.0531 | detected | 0.889 to 6.398 |  |  |  |  |  |  |  | 
Oc1ccc([C@H]2COc3cc(O)ccc3C2)cc1 [EQL, Equol] |  | 0.0131 | 0.0138 | 0.022 | not quantitated |  |  |  |  |  |  |  |  | 
COc1ccc(-c2coc3cc(O)ccc3c2=O)cc1 [FMN, Formononetin] | 0.116 | 0.0664 | 0.145 | 0.082 | detected |  | 93.61 ± 0.44 | 96.14 ± 0.15 | 0.5 to 1 | 21.8 | 83 | 0.7577 ± 0.0482 | 302 ± 35.9 | about 25%
